Results reported in ChEMBL document CHEMBL1122029, “N2-(gamma-D-Glutamyl)-meso-2(L),2'(D)-diaminopimelic acid as the minimal prerequisite structure of FK-156: its acyl derivatives with potent immunostimulating activity” (1982).

Tests used:
Cavia porcellus [1] = species on record: Cavia porcellus; assay: Ability to induce delayed-type hypersensitivity to egg albumin in Hartley guinea pigs at the dose of 1 ug/site; format: functional
Mus musculus [2] = assay: Antiinfectious effect against Escherichia coli 22 in ICR mice(10) at the dose of 1 mg/kg (i.p.) expressed as number of survivals; format: functional; conditions: route intraperitoneal
[3] = Phagocytic activity was assessed in a carbon clearance assay and stimulation index was reported in male DDY mice at the dose of 0.1 mg/kg; Kt/Kc; format: functional
Mus musculus [4] = assay: Phagocytic activity was assessed in a carbon clearance assay in male DDY mice at the dose of 0.1 mg/kg; format: functional, organism-based; parameters: dose 0.1 mg/kg
Mus musculus [5] = assay: Antiinfectious effect against Escherichia coli 22 in ICR mice(10) at the dose of 0.1 mg/kg (i.p.) expressed as number of survivals; format: functional; conditions: route intraperitoneal
Cavia porcellus [6] = species on record: Cavia porcellus; assay: Ability to induce delayed-type hypersensitivity to egg albumin in Hartley guinea pigs at the dose of 10 ug/site; format: functional; parameters: unit not given beside the values
Mus musculus [7] = assay: Phagocytic activity was assessed in a carbon clearance assay in male DDY mice at the dose of 1 mg/kg; format: functional, organism-based; parameters: dose 1 mg/kg
[8] = Phagocytic activity was assessed in a carbon clearance assay and stimulation index was reported in male DDY mice at the dose of 1 mg/kg; Kt/Kc; format: functional
Mus musculus [9] = species on record: Mus musculus; assay: Tumor suppressive activity against meth-A fibrosarcoma in BALB/c mice(9) at the dose of 100 ug/site; format: functional
Mus musculus [10] = species on record: Mus musculus; assay: Tumor suppressive activity against meth-A fibrosarcoma in BALB/c mice (10) at the dose of 100 ug/site; format: functional
Mus musculus [11] = assay: Phagocytic activity was assessed in a carbon clearance assay in male DDY mice at the dose of 10 mg/kg; format: functional, organism-based; parameters: dose 10 mg/kg
[12] = Phagocytic activity was assessed in a carbon clearance assay and stimulation index was reported in male DDY mice at the dose of 10 mg/kg; Kt/Kc; format: functional
Mus musculus [13] = assay: Antiinfectious effect against Escherichia coli 22 in ICR mice(10) at the dose of 1 mg/kg (i.p.) expressed as survivals; format: functional; conditions: route intraperitoneal

| SMILES | Skin response (Cavia porcellus [1]) | Survival (Mus musculus [2]) | Ratio [3] | K (Mus musculus [4]) | Survival (Mus musculus [5]) | Skin response (Cavia porcellus [6]) | K (Mus musculus [7]) | Ratio [8] | Suppression (Mus musculus [9]) | Suppression (Mus musculus [10]) | K (Mus musculus [11]) | Ratio [12] | Survival (Mus musculus [13]) |
| --- | --- | --- | --- | --- | --- | --- | --- | --- | --- | --- | --- | --- | --- |
| CCCCCCCC(=O)NC(CCC(=O)NC(CCCC(N)C(=O)O)C(=O)O)C(=O)O (centres undefined) | 8.3 | 6 | 1.6 | 0.032 | 7 | 3.7 | 0.048 | 2.4 | – | – | – | – | – |
| CCCCCCCCCCCCCCCCCC(=O)NC(CCC(=O)NC(CCCC(N)C(=O)O)C(=O)O)C(=O)O (centres undefined) | 1.7 | 8 | 1.6 | 0.032 | 7 | <3.1 | < 0.048 | 2.4 | 9 | – | – | – | – |
| CC(O)C(=O)NC(C)C(=O)NC(CCC(=O)NC(CCCC(N)C(=O)O)C(=O)NCC(=O)O)C(=O)O (centres undefined) | 8.2 | 7 | 1.5 | 0.029 | 6 | 10 | 0.038 | 1.9 | – | 0 | – | – | – |
| NC(CCCC(NC(=O)CCC(N)C(=O)O)C(=O)O)C(=O)O (centres undefined) | 3.3 | – | – | – | 4 | 6.9 | 0.021 | 1.1 | – | – | 0.058 | 2.9 | 4 |
